Biological target: T1, bacteriophage T4 DNA polymerase (Enterobacteria phage T4, UniProt P04415)
T1 construct: made in house
T1 sequence (P04415 1-898): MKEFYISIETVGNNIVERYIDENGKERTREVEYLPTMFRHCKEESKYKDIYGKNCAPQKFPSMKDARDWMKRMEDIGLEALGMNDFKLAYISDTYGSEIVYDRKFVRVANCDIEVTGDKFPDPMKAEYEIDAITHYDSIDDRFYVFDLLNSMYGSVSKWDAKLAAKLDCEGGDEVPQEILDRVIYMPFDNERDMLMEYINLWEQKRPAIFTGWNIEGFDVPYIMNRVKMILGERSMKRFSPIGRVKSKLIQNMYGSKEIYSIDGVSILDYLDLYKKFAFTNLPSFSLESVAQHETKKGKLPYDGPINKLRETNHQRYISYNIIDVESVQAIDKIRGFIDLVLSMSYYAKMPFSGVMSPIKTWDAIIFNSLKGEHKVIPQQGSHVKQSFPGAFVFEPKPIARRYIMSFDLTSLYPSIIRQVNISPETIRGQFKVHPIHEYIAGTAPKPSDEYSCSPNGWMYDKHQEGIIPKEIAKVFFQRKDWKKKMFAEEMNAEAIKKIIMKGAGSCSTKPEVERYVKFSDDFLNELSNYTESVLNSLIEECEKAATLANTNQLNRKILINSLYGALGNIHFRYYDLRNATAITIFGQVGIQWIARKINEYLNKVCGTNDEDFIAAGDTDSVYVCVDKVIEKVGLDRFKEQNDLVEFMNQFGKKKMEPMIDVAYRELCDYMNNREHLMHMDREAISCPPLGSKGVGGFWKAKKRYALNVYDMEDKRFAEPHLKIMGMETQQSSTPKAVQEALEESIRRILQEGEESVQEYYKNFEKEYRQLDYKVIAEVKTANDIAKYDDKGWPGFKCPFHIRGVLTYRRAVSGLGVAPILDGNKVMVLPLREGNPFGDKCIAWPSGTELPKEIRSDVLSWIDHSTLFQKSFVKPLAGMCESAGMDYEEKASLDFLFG
Experiment: Counter-screen against bacteriophage T4 DNA polymerase
Format: biochemical
Conditions: for % inhibition T4 10' 2.5 / % inhibition T4 10' 5 / % inhibition T4 10' 10 / % inhibition T4 10' 20 / % inhibition T4 10' 40 / % inhibition T4 10' 80: read at 10'
Method in brief: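 IC50 values come from dose-response testing of each compound against T4 DNA polymerase. This B-family polymerase was purified in-house and used as the counter-screen.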

SMILES: Cc1cccc(-c2noc(C(=O)NNC(=O)C(Cl)(Cl)Cl)n2)c1 [KU0266208]
- % inhibition T4 10' 2.5 (DRC-1, concentration 2.5): 1.001%
- % inhibition T4 10' 5 (DRC-1, concentration 5): -2.3946%
- % inhibition T4 10' 10 (DRC-1, concentration 10): 2.959%
- % inhibition T4 10' 20 (DRC-1, concentration 20): 3.222%
- % inhibition T4 10' 40 (DRC-1, concentration 40): 8.397%
- % inhibition T4 10' 80 (DRC-1, concentration 80): 7.879%
- % inhibition T4 70' 2.5 (DRC-1, read at 70', concentration 2.5): 1.555%
- % inhibition T4 70' 5 (DRC-1, read at 70', concentration 5): -1.004%
- % inhibition T4 70' 10 (DRC-1, read at 70', concentration 10): 1.596%
- % inhibition T4 70' 20 (DRC-1, read at 70', concentration 20): 0.3208%
- % inhibition T4 70' 40 (DRC-1, read at 70', concentration 40): 4.827%
- % inhibition T4 70' 80 (DRC-1, read at 70', concentration 80): 4.906%
- % inhibition T4 130' 2.5 (DRC-1, read at 130', concentration 2.5): -1.03%
- % inhibition T4 130' 5 (DRC-1, read at 130', concentration 5): -3.982%
- % inhibition T4 130' 10 (DRC-1, read at 130', concentration 10): -1.107%
- % inhibition T4 130' 20 (DRC-1, read at 130', concentration 20): -3.27%
- % inhibition T4 130' 40 (DRC-1, read at 130', concentration 40): 2.252%
- % inhibition T4 130' 80 (DRC-1, read at 130', concentration 80): 3.008%
- % inhibition T4 10' 2.5 (DRC-2, concentration 2.5): 7%
- % inhibition T4 10' 5 (DRC-2, concentration 5): -1.26%
- % inhibition T4 10' 10 (DRC-2, concentration 10): -5%
- % inhibition T4 10' 20 (DRC-2, concentration 20): -8%
- % inhibition T4 10' 40 (DRC-2, concentration 40): -12%
- % inhibition T4 10' 80 (DRC-2, concentration 80): -4.34%
- % inhibition T4 40' 2.5 (DRC-2, read at 40', concentration 2.5): 7%
- % inhibition T4 40' 5 (DRC-2, read at 40', concentration 5): -1.26%
- % inhibition T4 40' 10 (DRC-2, read at 40', concentration 10): -5%
- % inhibition T4 40' 20 (DRC-2, read at 40', concentration 20): -8%
- % inhibition T4 40' 40 (DRC-2, read at 40', concentration 40): -12%
- % inhibition T4 40' 80 (DRC-2, read at 40', concentration 80): -4.34%
- % inhibition T4 90' 2.5 (DRC-2, read at 90', concentration 2.5): 7%
- % inhibition T4 90' 5 (DRC-2, read at 90', concentration 5): -1.21%
- % inhibition T4 90' 10 (DRC-2, read at 90', concentration 10): -5%
- % inhibition T4 90' 20 (DRC-2, read at 90', concentration 20): -8%
- % inhibition T4 90' 40 (DRC-2, read at 90', concentration 40): -10%
- % inhibition T4 90' 80 (DRC-2, read at 90', concentration 80): -1.44%
- % inhibition T4 180' 2.5 (DRC-2, read at 180', concentration 2.5): 1.78%
- % inhibition T4 180' 5 (DRC-2, read at 180', concentration 5): -5.37%
- % inhibition T4 180' 10 (DRC-2, read at 180', concentration 10): -9%
- % inhibition T4 180' 20 (DRC-2, read at 180', concentration 20): -11%
- % inhibition T4 180' 40 (DRC-2, read at 180', concentration 40): -9%
- % inhibition T4 180' 80 (DRC-2, read at 180', concentration 80): 0.715%

SMILES: O=C(NNC(=O)c1ccc(Cl)cc1)C(=O)NNC(=O)c1ccc(Cl)cc1 [Molecule 25, O=C(C(=O)NNC(=O)c1ccc(cc1)Cl)NNC(=O)c1ccc(cc1)Cl]
- % inhibition T4 10' (DRC-2, concentration 80): -22%
- % inhibition T4 40' (DRC-2, concentration 5): -13%
- % inhibition T4 40' (DRC-2, concentration 20): -23%
- % inhibition T4 40' (DRC-2, concentration 40): -17%
- % inhibition T4 90' (DRC-2, concentration 5): -13%
- % inhibition T4 90' (DRC-2, concentration 20): -22%
- % inhibition T4 180' (DRC-2, concentration 5): -17%
- % inhibition T4 180' (DRC-2, concentration 20): -23%
- % inhibition T4 180' (DRC-2, concentration 40): -17%

SMILES: Cc1ccc(NC(=O)Cn2ccc3c(=O)[nH]ccc32)cc1F [Molecule 48, O=C(Cn1ccc2c1cc[nH]c2=O)Nc1ccc(c(c1)F)C]
- % inhibition T4 10' (DRC-2, concentration 5): -12%
- % inhibition T4 40' (DRC-2, concentration 5): -12%
- % inhibition T4 90' (DRC-2, concentration 10): -15%
- % inhibition T4 180' (DRC-2, concentration 5): -12%
- % inhibition T4 180' (DRC-2, concentration 10): -15%
